What was measured:
[1] = system: Amyloid-β peptide release (AβTotal), HEK cells overexpressing APP (HEK-APP); test: Amyloid-β peptide release (AβTotal) assay, AlphaLISA on supernatant of HEK-APP cells; type: cell-based; conditions: ratio Abtot vs Ab42, HEK-APP cells, 24 h
[2] = system: Amyloid-β peptide release (Aβ42), HEK cells overexpressing APP (HEK-APP); test: Amyloid-β peptide release (Aβ42) assay, AlphaLISA on supernatant of HEK-APP cells; type: cell-based; conditions: Homo sapiens, HEK293, 24 h incubation with compound, read-out: Ab42 IC50 Ranges
Procedure, shortened: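 HEK-APP cells treated with compounds for 24 h at 37 °C, 5% CO2. Supernatant Aβ42 or total Aβ measured by AlphaLISA after 4.5 h with antibody beads (6E10 acceptor beads for total). IC50 values derived.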

Cc1ncc2sc(C(=O)N3CCCC(c4ccc(F)cc4)C3)nn12 (centres unmarked) [Example 109, [3-(4-Fluoro-phenyl)-piperidin-1-yl]-(5-methyl-imidazo[5,1-b][1,3,4]thiadiazol-2-yl)-methanone]
Abtot/Ab42 selectivity ranges [1]: d (d: 10 fold > selectivity)
IC50 [2]: 1 to 2.2 µM

Cc1ncc2oc(-c3ccc(NC(=O)Cc4ccc(Cl)cc4Cl)cc3)nn12 [Example 62, 2-(2,4-dichlorophenyl)-N-(4-(5-methylimidazo[5,1-b][1,3,4]oxadiazol-2-yl)phenyl)acetamide]
Abtot/Ab42 selectivity ranges [1]: b (b: 100 fold > selectivity ≥ 50 fold)
IC50 [2]: 0.5 to 1 µM

Cc1ncc2oc(-c3ccc(NC(=O)Cc4cc(F)cc(F)c4F)cc3)nn12 [Example 61, N-(4-(5-methylimidazo[5,1-b][1,3,4]oxadiazol-2-yl)phenyl)-2-(2,3,5-trifluorophenyl)acetamide]
Abtot/Ab42 selectivity ranges [1]: b (b: 100 fold > selectivity ≥ 50 fold)
IC50 [2]: 0.5 to 1 µM

COc1cc(NC(=O)Cc2c(Cl)cc(C(F)(F)F)cc2Cl)ccc1-c1nn2c(C)ncc2o1 [Example 32, 2-(2,6-dichloro-4-(trifluoromethyl)phenyl)-N-(3-methoxy-4-(5-methylimidazo[5,1-b][1,3,4]oxadiazol-2-yl)phenyl) acetamide]
Abtot/Ab42 selectivity ranges [1]: a (a: selectivity ≥ 100 fold)
IC50 [2]: 0.1 to 0.5 µM

Cc1ncc2oc(-c3ccc(NC(=O)Cc4cccc(Oc5ccccc5)c4)cn3)nn12 [Example 15, N-[6-(5-Methyl-imidazo[5,1-b][1,2,4]oxadiazol-2-yl)-pyridin-3-yl]-2-(3-phenoxy-phenyl)-acetamide]
Abtot/Ab42 selectivity ranges [1]: b (b: 100 fold > selectivity ≥ 50 fold)
IC50 [2]: 0.5 to 1 µM

Cc1ncc2oc(-c3ccc(NCc4ccc(Cl)c(Cl)c4)cn3)nn12 [Example 28]
Abtot/Ab42 selectivity ranges [1]: d (d: 10 fold > selectivity)
IC50 [2]: 0.1 to 0.5 µM

Cc1ncc2sc(C(=O)N3CCC[C@@H]3c3ccc(Br)cc3)nn12 [Example 113, (R)-(2-(4-bromophenyl)pyrrolidin-1-yl)(5-methylimidazo[5,1-b][1,3,4]thiadiazol-2-yl)methanone]
Abtot/Ab42 selectivity ranges [1]: d (d: 10 fold > selectivity)
IC50 [2]: < 0.1 µM

Cc1ncc2sc(C(=O)NCc3ccc(Oc4ccccc4)cc3)nn12 [Example 107, 5-Methyl-imidazo[5,1-b][1,3,4]thiadiazole-2-carboxylic acid 4-phenoxy-benzylamide]
Abtot/Ab42 selectivity ranges [1]: c (c: 50 fold > selectivity ≥ 10 fold)
IC50 [2]: 0.1 to 0.5 µM

Cc1cc(-c2nn3c(C)ncc3o2)ccc1NC(=O)Cc1c(Cl)cc(C(F)(F)F)cc1Cl [Example 42, 2-(2,6-dichloro-4-(trifluoromethyl)phenyl)-N-(2-methyl-4-(5-methylimidazo[5,1-b][1,3,4]oxadiazol-2-yl)phenyl)acetamide]
Abtot/Ab42 selectivity ranges [1]: b (b: 100 fold > selectivity ≥ 50 fold)
IC50 [2]: 0.5 to 1 µM

Cc1ncc2oc(-c3ccc(NC(=O)Cc4cccc5ccccc45)cn3)nn12 [Example 13, N-[6-(5-Methyl-imidazo[5,1-b][1,2,4]oxadiazol-2-yl)-pyridin-3-yl]-2-naphthalen-1-yl-acelamide]
Abtot/Ab42 selectivity ranges [1]: c (c: 50 fold > selectivity ≥ 10 fold)
IC50 [2]: 1 to 2.2 µM

Cc1ncc2sc(C(=O)N3CCCC3c3ccc(F)cc3)nn12 (centres unmarked) [Example 124, [2-(4-Fluoro-phenyl)-pyrrolidin-1-yl]-(5-methyl-imidazo[5,1-b][1,3,4]thiadiazol-2-yl)-methanone]
Abtot/Ab42 selectivity ranges [1]: d (d: 10 fold > selectivity)
IC50 [2]: 0.1 to 0.5 µM

Cc1ncc2sc(C(=O)N(C)Cc3cccc(C(F)(F)F)c3)nn12 [Example 101, 5-Methyl-imidazo[5,1-b][1,3,4]thiadiazole-2-carboxylic acid methyl-(3-trifluoromethyl-benzyl)-amide]
Abtot/Ab42 selectivity ranges [1]: d (d: 10 fold > selectivity)
IC50 [2]: 0.5 to 1 µM

Cc1ncc2oc(-c3ccc(NC(=O)Cc4cccc(Cl)c4)cc3)nn12 [Example 63, 2-(3-chlorophenyl)-N-(4-(5-methylimidazo[5,1-b][1,3,4]oxadiazol-2-yl)phenyl)acetamide]
Abtot/Ab42 selectivity ranges [1]: b (b: 100 fold > selectivity ≥ 50 fold)
IC50 [2]: 0.5 to 1 µM

COc1cc(C(=O)NCc2cccc3ccccc23)ccc1-c1nn2c(C)ncc2o1 [Example 20, 3-Methoxy-4-(5-methyl-imidazo[5,1-b][1,2,4]oxadiazol-2-yl)-N-naphthalen-1-ylmethyl-benzamide]
Abtot/Ab42 selectivity ranges [1]: c (c: 50 fold > selectivity ≥ 10 fold)
IC50 [2]: 1 to 2.2 µM

Cc1cc(-c2nn3c(C)ncc3o2)ccc1NC(=O)C(C)c1cccc(C(F)(F)F)c1 (centres unmarked) [Example 46, N-(2-methyl-4-(5-methylimidazo[5,1-b][1,3,4]oxadiazol-2-yl)phenyl)-2-(3-(trifluoromethyl)phenyl)propanamide]
Abtot/Ab42 selectivity ranges [1]: b (b: 100 fold > selectivity ≥ 50 fold)
IC50 [2]: 0.5 to 1 µM

Cc1cc(-c2nn3c(C)ncc3o2)ccc1NC(=O)Cc1ccccc1C(F)(F)F [Example 40, N-(2-methyl-4-(5-methylimidazo[5,1-b][1,3,4]oxadiazol-2-yl)phenyl)-2-(2-(trifluoromethyl)phenyl)acetamide]
Abtot/Ab42 selectivity ranges [1]: b (b: 100 fold > selectivity ≥ 50 fold)
IC50 [2]: 0.5 to 1 µM

CCOc1ccccc1CNC(=O)c1nn2c(C)ncc2s1 [Example 96, 5-Methyl-imidazo[5,1-b][1,3,4]thiadiazole-2-carboxylic acid 2-ethoxy-benzylamide]
Abtot/Ab42 selectivity ranges [1]: d (d: 10 fold > selectivity)
IC50 [2]: 0.5 to 1 µM

Cc1ncc2sc(C(=O)N(C)Cc3cccc(Cl)c3)nn12 [Example 95, 5-Methyl-imidazo[5,1-b][1,3,4]thiadiazole-2-carboxylic acid (3-chloro-benzyl)-methyl-amide]
Abtot/Ab42 selectivity ranges [1]: d (d: 10 fold > selectivity)
IC50 [2]: 0.5 to 1 µM

Cc1ncc2oc(-c3ccc(NC(=O)Cc4cccc(Br)c4)cc3)nn12 [Example 9, 2-(3-Bromo-phenyl)-N-[4-(5-methyl-imidazo[5,1-b][1,2,4]oxadiazol-2-yl)-phenyl]-acetamide]
Abtot/Ab42 selectivity ranges [1]: c (c: 50 fold > selectivity ≥ 10 fold)
IC50 [2]: 0.5 to 1 µM

Cc1ncc2oc(-c3ccc(NC(=O)Cc4ccc(C(C)(C)C)cc4)cc3)nn12 [Example 57, 2-(4-tert-Butyl-phenyl)-N-[4-(5-methyl-imidazo[5,1-b][1,2,4]oxadiazol-2-yl)-phenyl]-acetamide]
Abtot/Ab42 selectivity ranges [1]: b (b: 100 fold > selectivity ≥ 50 fold)
IC50 [2]: 0.5 to 1 µM

Cc1ncc2oc(-c3ccc(NC(=O)Cc4ccc(C#N)cc4)cc3)nn12 [Example 49, 2-(4-Cyano-phenyl)-N-[4-(5-methyl-imidazo[5,1-b] [1,2,4]oxadiazol-2-yl)-phenyl]-acetamide]
Abtot/Ab42 selectivity ranges [1]: c (c: 50 fold > selectivity ≥ 10 fold)
IC50 [2]: 1 to 2.2 µM

Cc1ncc2oc(-c3ccc(NC(=O)Cc4csc5ccc(Cl)cc45)cc3)nn12 [Example 73, 2-(5-chlorobenzo[b]thiophen-3-yl)-N-(4-(5-methylimidazo[5,1-b] [1,3,4]oxadiazol-2-yl)phenyl)acetamide]
Abtot/Ab42 selectivity ranges [1]: c (c: 50 fold > selectivity ≥ 10 fold)
IC50 [2]: 1 to 2.2 µM

Cc1ncc2oc(-c3ccc(NC(=O)Cc4ccccc4OC(F)(F)F)cn3)nn12 [Example 81, N-[6-(5-Methyl-imidazo[5,1-b][1,2,4]oxadiazol-2-yl)-pyridin-3-yl]-2-(2-trifluoromethoxy-phenyl)-acetamide]
Abtot/Ab42 selectivity ranges [1]: c (c: 50 fold > selectivity ≥ 10 fold)
IC50 [2]: 1 to 2.2 µM

Cc1ncc2oc(-c3ccc(NC(=O)Cc4ccc(Cl)cc4)cc3)nn12 [Example 47, 2-(4-Chloro-phenyl)-N-[4-(5-methyl-imidazo[5,1-b] [1,2,4]oxadiazol-2-yl)-phenyl]-acetamide]
Abtot/Ab42 selectivity ranges [1]: c (c: 50 fold > selectivity ≥ 10 fold)
IC50 [2]: 0.5 to 1 µM

Cc1ncc2sc(C(=O)N3CCC[C@H]3c3ccc(Br)cc3)nn12 [Example 114, (S)-(2-(4-bromophenyl)pyrrolidin-1-yl) (5-methylimidazo[5,1-b][1,3,4]thiadiazol-2-yl)methanone]
Abtot/Ab42 selectivity ranges [1]: d (d: 10 fold > selectivity)
IC50 [2]: 1 to 2.2 µM

Cc1ncc2oc(-c3ccc(NC(=O)Cc4cccc(C(F)(F)F)c4)cc3)nn12 [Example 3, N-[4-(5-Methyl-imidazo[5,1-b][1,2,4]oxadiazol-2-yl)-phenyl]-2-(3-trifluoromethyl-phenyl)-acetamide]
Abtot/Ab42 selectivity ranges [1]: c (c: 50 fold > selectivity ≥ 10 fold)
IC50 [2]: 1 to 2.2 µM

CCc1ncc2oc(-c3ccc(C(=O)NCc4cccc5ccccc45)cc3)nn12 [Example 21]
Abtot/Ab42 selectivity ranges [1]: c (c: 50 fold > selectivity ≥ 10 fold)
IC50 [2]: 1 to 2.2 µM

Cc1ncc2sc(C(=O)N(C)CCc3ccccc3)nn12 [Example 97, 5-Methyl-imidazo[5,1-b][1,3,4]thiadiazole-2-carboxylic acid methyl-phenethyl-amide]
Abtot/Ab42 selectivity ranges [1]: d (d: 10 fold > selectivity)
IC50 [2]: 0.5 to 1 µM

Cc1ncc2sc(C(=O)NCc3cccc4ccccc34)nn12 [Example 105, 5-methyl-N-(naphthalen-1-ylmethyl)imidazo[5,1-b][1,3,4]thiadiazole-2-carboxamide]
Abtot/Ab42 selectivity ranges [1]: d (d: 10 fold > selectivity)
IC50 [2]: 0.5 to 1 µM

Cc1ncc2oc(-c3ccc(NC(=O)Cc4ccc(Oc5ccccc5)cc4)cn3)nn12 [Example 78, N-[6-(5-Methyl-imidazo[5,1-b][1,2,4]oxadiazol-2-yl)-pyridin-3-yl]-2-(4-phenoxy-phenyl)-acetamide]
Abtot/Ab42 selectivity ranges [1]: c (c: 50 fold > selectivity ≥ 10 fold)
IC50 [2]: 1 to 2.2 µM

Cc1ncc2sc(C(=O)N(C)Cc3ccccc3)nn12 [Example 98, 5-Methyl-imidazo[5,1-b][1,3,4]thiadiazole-2-carboxylic acid benzyl-methyl-amide]
Abtot/Ab42 selectivity ranges [1]: d (d: 10 fold > selectivity)
IC50 [2]: 1 to 2.2 µM

Reference: patent publication US9932354B2, “Imidazo-oxadiazole and imidazo-thiadiazole derivatives” (Ares Trading S.A., priority 2012, dated 2018)
